# Data published in patent EP1203770A1 (priority 1992, dated 1994).
# Where two headings read alike, the source gives them in different places.
# Biological target: T1, HIV-1 protease (Human immunodeficiency virus type 1 group M subtype B, UniProt P04585)
# T1 construct: The protease (or proteinase), consisting of only 99 amino acids, is among the smallest enzymes known
# Assay: In vitro HIV protease inhibitory assay (HIV Protease FITC Assay)
# Type: biochemical
# Conditions: for inhibition at 0.123 µM / inhibition at 0.37 µM / inhibition at 1.1 µM / inhibition at 3.3 µM / inhibition at 10 µM / inhibition at 30 µM / inhibition at 100 µM: read-out: HIV-1 Protease % Inhib; for inhibition at 100 µM: HIV-1 Dose 100.000 uM; for Ki: read-out: HIV-1 FITC Ki
# Method in brief: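 Biotin/FITC-labelled peptide substrate cleaved by HIV-1 protease for 1 h at room temperature in the dark, in 0.1 M sodium acetate pH 5.5, 1.0 M NaCl, 0.05% NP-40. Uncleaved substrate captured on avidin beads and separated by filtration; fluorescence gave % inhibition.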
SMILES,inhibition at 0.123 µM (HIV-1 Dose 0.123 uM) [%],inhibition at 0.37 µM (HIV-1 Dose 0.370 uM) [%],inhibition at 1.1 µM (HIV-1 Dose 1.100 uM) [%],inhibition at 3.3 µM (HIV-1 Dose 3.300 uM) [%],inhibition at 10 µM (HIV-1 Dose 10.000 uM) [%],inhibition at 30 µM (HIV-1 Dose 30.000 uM) [%],inhibition at 100 µM [%],Ki [nM],inhibition at 0.123 µM [%],inhibition at 0.37 µM [%],inhibition at 1.1 µM [%],inhibition at 3.3 µM [%],inhibition at 10 µM [%],inhibition at 30 µM [%]
"CCC(Cc1ccc(Cl)cc1)c1cc(O)c(C(c2ccccc2)C2CC2)c(=O)o1 (stereo not drawn) [Example 155, 3-(α-cyclopropylbenzyl)-4-hydroxy-6-(α-ethyl-p-chlorophenethyl)-2H-pyran-2-one]",27.6,46,79.9,92.8,97.2,93.5,111,66,,,,,,
"CCC(Cc1cccc(Cl)c1)c1cc(O)c(C(c2ccccc2)C2CC2)c(=O)o1 (stereo not drawn) [Example 156, 3-(α-cyclopropylbenzyl)-4-hydroxy-6-(α-ethyl-m-chlorophenethyl)-2H-pyran-2-one]",< 10,24.2,64.4,82.6,87.3,92.3,,65,,,,,,
"CCC(Cc1ccccc1Cl)c1cc(O)c(C(c2ccccc2)C2CC2)c(=O)o1 (stereo not drawn) [Example 157, 3-(α-cyclopropylbenzyl)-4-hydroxy-6-(α-ethyl-o-chlorophenethyl)-2H-pyran-2-one]",< 10,17.6,42.2,69,83.5,84.9,,,,,,,,
"CCC(Cc1ccc(Br)cc1)c1cc(O)c(C(c2ccccc2)C2CC2)c(=O)o1 (stereo not drawn) [Example 158, 3-(α-cyclopropylbenzyl)-4-hydroxy-6-(α-ethyl-p-bromophenethyl)-2H-pyran-2-one]",15.7,44.2,70.5,87,100,96.1,115,55,,,,,,
"CCC(Cc1cccc(Br)c1)c1cc(O)c(C(c2ccccc2)C2CC2)c(=O)o1 (stereo not drawn) [Example 159, 3-(α-cyclopropylbenzyl)-4-hydroxy-6-(α-ethyl-m-bromophenethyl)-2H-pyran-2-one]",< 10,20.6,56.4,76.2,92.3,95.1,,207,,,,,,
"CCC(Cc1ccc(C(F)(F)F)cc1)c1cc(O)c(C(c2ccccc2)C2CC2)c(=O)o1 (stereo not drawn) [Example 160, 3-(α-cyclopropylbenzyl)-4-hydroxy-6-(α-ethyl-p-triflurormethylphenethyl)-2H-pyran-2-one]",< 10,12.2,39.4,78.2,89.7,92.1,,,,,,,,
"CCC(Cc1cccc(C(F)(F)F)c1)c1cc(O)c(C(c2ccccc2)C2CC2)c(=O)o1 (stereo not drawn) [Example 161, 3-(α-cyclopropylbenzyl)-4-hydroxy-6-(α-ethyl-m-triflurormethylphenethyl)-2H-pyran-2-one]",< 10,< 10,41.8,78,96.5,105,,,,,,,,
"CCC(Cc1ccccc1C(F)(F)F)c1cc(O)c(C(c2ccccc2)C2CC2)c(=O)o1 (stereo not drawn) [Example 162, 3-(α-cyclopropylbenzyl)-4-hydroxy-6-(α-ethyl-o-triflurormethylphenethyl)-2H-pyran-2-one]",< 10,< 10,< 10,34.4,52,72.3,,,,,,,,
"CCC(Cc1ccc(OC)cc1)c1cc(O)c(C(c2ccccc2)C2CC2)c(=O)o1 (stereo not drawn) [Example 163, 3-(α-cyclopropylbenzyl)-4-hydroxy-6-(α-ethyl-p-methoxyphenethyl)-2H-pyran-2-one]",< 10,30.8,65.6,88.7,101,98.4,,172,,,,,,
"CCC(Cc1cccc(OC)c1)c1cc(O)c(C(c2ccccc2)C2CC2)c(=O)o1 (stereo not drawn) [Example 164, 3-(α-cyclopropylbenzyl)-4-hydroxy-6-(α-ethyl-m-methoxyphenethyl)-2H-pyran-2-one]",< 10,16.5,50,68.8,84.8,88.2,,185,,,,,,
"O=c1oc(CCc2ccc(F)cc2)cc(O)c1C(c1ccccc1)C1CC1 (stereo not drawn) [Example 165, 3-(α-cyclopropylbenzyl)-4-hydroxy-6-(p-fluorophenethyl)-2H-pyran-2-one]",< 10,10.5,32.9,60,80.7,94.1,,,,,,,,
"O=c1oc(CCc2ccc(Cl)cc2)cc(O)c1C(c1ccccc1)C1CC1 (stereo not drawn) [Example 166, 3-(α-cyclopropylbenzyl)-4-hydroxy-6-(p-chlorophenethyl)-2H-pyran-2-one]",< 10,< 10,< 10,39.8,62.3,80.9,97.8,,,,,,,
"O=c1oc(CCc2ccc(Br)cc2)cc(O)c1C(c1ccccc1)C1CC1 (stereo not drawn) [Example 167, 3-(α-cyclopropylbenzyl)-4-hydroxy-6-(p-bromophenethyl)-2H-pyran-2-one]",< 10,< 10,18.4,37.1,60.4,81.1,,,,,,,,
"C=CC(C1=C(O)CC(Cc2ccccc2)(c2ccccc2)OC1=O)c1ccccc1 (centres unmarked) [Example 168, 5,6-Dihydro-4-hydroxy-6-phenyl-6-(phenylmethyl)-3-(1-phenyl-2-propenyl)-2H-pyran-2-one]",< 10,< 10,< 10,10.4,43.4,48,,,,,,,,
"CCC(C1=C(O)CC(Cc2ccccc2)(c2ccccc2)OC1=O)c1ccccc1 (centres unmarked) [Example 169, 5,6-Dihydro-4-hydroxy-6-phenyl-6-(phenylmethyl)-3-(1-phenylpropyl)-2H-pyran-2-one]",,,,,,,,,< 10,< 10,< 10,< 10,33.2,54.8
"CCCC1(CCc2ccccc2)CC(O)=C(C(/C=C/c2ccccc2)c2ccccc2)C(=O)O1 (centres unmarked) [Example 170, 3-(1,3-Diphenyl-2-propenyl)-5,6-dihydro-4-hydroxy-6-(2-phenylethyl)-6-propyl-, (E)-2H-pyran-2-one]",,,,,,,,50,< 10,29.6,62.1,86.7,95.1,93
"CCCC1(CCc2ccccc2)CC(O)=C(C(CCc2ccccc2)c2ccccc2)C(=O)O1 (centres unmarked) [Example 171, 3-(1,3-Diphenylpropyl)-5,6-dihydro-4-hydroxy-6-(2-phenylethyl)-6-propyl-, 2H-pyran-2-one]",,,,,,,,50,11.8,39.5,68.9,82.2,96.8,94.6
